Values of other authors in US20080287471A1, “4'-Substituted Carbovir And Abacavir-Derivatives As Well As Related Compounds With Hiv And Hcv Antiviral Activity” (priority 2003, published 2008).

Tested on: HIV
Conditions: after a short course of abacavir monotherapy

Nc1nc(NC2CC2)c2ncn([C@H]3C=C[C@@H](CO)C3)c2n1 [abacavir, Abacavir]
average reduction in viral load: more than 1.4 log 10 RNA copies/ml
